According to patent US20160178637A1, “DETECTION OF ALPHA, BETA-DICARBONYL COMPOUNDS WITH FLUOROGENIC PROBES” (THE UNIVERSITY OF WARWICK, priority 2012, published 2016):

What was measured:
[1] = system: human leukaemia 60 cells (HL60); assay: Fluorescence imaging of MG in isolated human leukaemia cells; assay type: cell-based; conditions: HL60 cells 1×10^5 per ml, DAF-2 10 μM 40 min 37° C., washed, 30-120 min; excitation laser 457 nm, emission filter 470-500 nm
[2] = Incubation of DAF-2 with the NO donor DETA-nonoate, fluorescence; assay type: physicochemical; conditions: DAF-2 50 μM + DETA-nonoate 10 μM, 10 mM sodium phosphate buffer pH 7.4, 37° C., one hour
Description: 4,5-Diaminofluorescein (DAF-2) was a fluorogenic probe developed for the detection of nitric oxide. 4,5-Diaminorhodamine (DAR), 8-(3,4-diaminophenyl)-2,6-bis(2-carboxyethyl)-4,4-difluoro-1,3,5,7-tetramethyl-4-bora-3a,4a-diaza-s-indacene (DAM BO-P″) and o-diaminocyanine are analogous o-diamino derivatizing agents based on different intense fluorophores. DAF-2 reacts with nitric oxide to form the fluorophore triazolofluorescein [6]. For example, incubation of DAF-2 (50 μM) with the NO donor (Z)-1-[2-(2-aminoethyl)-N-(2-ammonioethyl)amino]diazen-1-ium-1,2-diolate (DETA-nonoate), 10 μM, in 10 mM sodium phosphate buffer, pH 7.4 at 37° C., for one hour gave characteristic fluorescence of triazolofluorescein—excitation and emission maximum wavelengths of 491 and 515 nm, respectively. A further metabolite that reacts with DAF-2 is ascorbic acid which forms adducts DAF-2-DHA-5008 and DAF-2-DHA-518 which are fluorescent with excitation and emission wavelength maxima of 490 and 514 nm, respectively.

Compound	fluorescence image of endogenous MG in cells [1]	emission maximum wavelength [2] [nm]	excitation maximum wavelength [2] [nm]
Nc1cc2c(cc1N)C1(OC2=O)c2ccc(O)cc2Oc2cc(O)ccc21 [DAF-2, 4,5-diaminofluorescein]	fluorescence indicate of the DAF-2 MG adduct		
O=C1OC2(c3ccc(O)cc3Oc3cc(O)ccc32)c2ccc3[nH]nnc3c21 [triazolofluorescein]		515	491
